Test results as given in patent EP4335840A1, “NEW CONTRAST AGENTS FOR USE IN DIAGNOSTIC IMAGING” (priority 2022, dated 2024).

Legend:
OATP1B1 [1] = target: T1, OATP1B1 (Homo sapiens, UniProt Q9Y6L6); assay: Uptake into stable transfected OATP1B1 HEK 293 cells; type: cell-based; settings: 100 µM, 40 min, relative to RC1 (Gd-EOB-DTPA)
T1 sequence (Q9Y6L6 1-691): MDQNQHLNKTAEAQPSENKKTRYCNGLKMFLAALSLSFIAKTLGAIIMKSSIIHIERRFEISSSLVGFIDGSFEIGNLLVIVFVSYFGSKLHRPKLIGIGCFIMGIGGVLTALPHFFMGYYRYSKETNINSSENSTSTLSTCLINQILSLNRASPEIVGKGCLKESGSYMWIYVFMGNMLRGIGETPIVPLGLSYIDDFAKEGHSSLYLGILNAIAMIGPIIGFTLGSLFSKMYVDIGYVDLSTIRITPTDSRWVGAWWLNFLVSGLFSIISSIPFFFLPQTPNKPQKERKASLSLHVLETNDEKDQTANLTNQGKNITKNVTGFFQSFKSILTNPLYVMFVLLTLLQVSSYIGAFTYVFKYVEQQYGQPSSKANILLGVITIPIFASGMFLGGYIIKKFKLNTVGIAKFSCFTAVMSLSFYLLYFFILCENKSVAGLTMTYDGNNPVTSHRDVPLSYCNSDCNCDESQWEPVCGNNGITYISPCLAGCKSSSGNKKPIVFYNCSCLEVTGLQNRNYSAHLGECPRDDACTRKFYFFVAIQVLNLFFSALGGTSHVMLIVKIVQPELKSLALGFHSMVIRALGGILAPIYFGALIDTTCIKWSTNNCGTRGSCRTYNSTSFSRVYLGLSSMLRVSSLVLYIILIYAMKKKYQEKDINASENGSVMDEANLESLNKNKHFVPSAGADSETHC
Protocol: Human stable transfected OATP1B1 human embryonic kidney 293 cells (OATP1B1 HEK 293, SLCO1B1, Entrez Gene ID: 10599) were used (Leonhardt M et al. Drug Metab Dispos. 2010 Jul;38(7):1024-8). The following culture medium was used: 500 mL DMEM (Dulbecco's Modified Eagle Medium - high Glucose, D6429), 50 mL FCS (fetal bovine serum, Fa. Sigma, F7524), 5.8 mL G418 (Geneticin, Fa. Gibco 10131-027) and 5 mL Pen-Strep. (Penicillin-Streptomycin, Fa. Gibco, Ref 15140-122). Cryopreserved cells were shortly thawed in water bath and diluted in 10 mL warm culture medium (37°C). After medium change the cells were grown for 3d in a 25 cm^2 cell culture flask. After 3 to 5d the cells were transferred into 75 cm^2 flasks. For the splitting the cells were incubated with 1.5 mL trypsin (Trypsin-EDTA (1x) 0,05%, Ref 25300-054 100ml, Fa. Gibco) for 3-5min in the incubator (37°C, 5% CO2 and […]). After centrifugation and washing with medium the cells were counted (50 µL cell suspension and 50 µL trypan blue (Trypan Blue Solution, 93595-50ml, Fa. Fluka). Cells were cultured (1×10^5 cells/well) in poly-D-lysine coated 24-well plates (Fa. Corning, Ref: 354414) in 1.5 mL medium per well. After 48h in the incubator the medium was changed and 1.5 mL/well sodium butyrate containing medium were added (40 mL culture medium plus 400 µL Na-Butyrate, Fa. Sigma Aldrich B5887-5G, 250 mg in 2.27 mL MilliQ water). After 24h in the incubator the medium was vacuumed off and 1.5 mL transport buffer was added and incubated for 10min. The transport buffer contains the following ingredients: 500 mL HBSS (Hank's balanced salt solution, Hyclone, SH30268.01), 5 mL HEPES buffer (4-(2-hydroxyethyl)-1-piperazineethanesulfonic acid, Gibco 15630-056) and 3.9 mL glucose (Sigma, G8270-100, 90 g/200mL MilliQ water). All test items were prepared in transport buffer at a final concentration of 100 µM from stock solutions (180 to 500 mM concentration). The OATP1B1 HEK 293 cells were incubated with test solutions (test item in transport buffer 500 µL) for 40min on a thermoshaker without shaking (PHMP, Fa. Grant Bio). Triplicates were performed for each test item. After incubation the cells were washed with 2 mL of cold PBS (+) buffer (Dulbeccos PBS +, Fa. Gibco). […] As a reference standard Gd-EOB-DTPA (gadoxetate) is used in the same well plate. The OATP1B1 HEK 293 uptake of the test compound is calculated relative to gadoxetate (resulting in the unit % of RC1).

OATP1B1 [2] = target: T1, OATP1B1; assay: as above; type: cell-based; settings: OATP1B1-HEK 293 cell uptake with Rifampicine
[3] = tested on: freshly isolated rat hepatocytes; assay: Uptake into freshly isolated rat hepatocytes; settings: for Uptake rat hepatocytes: 100 µmol Gd/L, 10 min, 37°C, relative to RC1 (Gd-EOB-DTPA); for Inhibition Rifampicine: rat hepatocyte uptake with OATP1B1/1B3 inhibitor Rifampicine, test item and inhibitor each 100 µM
Protocol: The rat hepatocytes were incubated (2.5 ·10^5 cells/well) for 2.5 to 4h in collagen coated 24-well plates (Fa. Beckton Dickinson Biocoat, cell environments, Collagen I Cellware) in Williams E-medium (Fa. Sigma W1878) in an incubator (37°C, 5% CO2 and 95% oxygen). After incubation the adherent hepatocytes were washed once with 37°C Hepes carbonate transport buffer (500 µL/well). The test items and RC1 were prepared from stock solutions (180 to 500 mM concentration) in Hepes carbonate transport buffer at pH 7.4 to reach a final concentration of 100 µmοl Gd/L. The specific uptake of the test item or RC1 into rat hepatocytes via OATP1 B1 and OATP1 B3 was challenged using a known OATP1B1/1B3 inhibitor (Rifampicine, Fa. Sigma R3501, test item and inhibitor 1:1 each 100 µM final concentration). The prepared rat hepatocyte plates were incubated with test solutions (500 µL/well) at 37°C for 10 min using a thermoshaker (Fa. Grant Bio, PHMP). Triplicates were performed for each test item. After incubating the cells were washed once with cold PBS buffer (Fa. Gibco, Dulbeccos PBS (+)). After washing the intact hepatocytes were lysed by addition of 500 µL cold 0.01 % Triton-X 100 in Millipore water for 1h. […] After 1h 500 µL of 10 nM Terbium ICP-MS standard was added in 2% nitric acid and 0.01% Triton 100 before the Gadolinium concentrations in the lysate were measured using ICP-MS (Agilent 8900, singleQuad, integr. Time 0.3 s, no gas, 5 replicates, Gd m/z 157, Tb m/z 159). As a reference standard RC1 is used in the same well plate. The hepatocyte uptake of the test compound is calculated relative to RC1 (resulting in the unit % of RC1).

[4] = Water solubility in aqueous buffer; type: physicochemical; settings: aqueous buffer 10 mM Tris-HCl, pH 7.4, 20°C; Gd by ICP-MS
Protocol: The exploratory water solubility of the compounds is determined at room temperature (20°C) in 0.5 mL buffer solution (10 mM Tris-HCI, pH 7.4) in the microcentrifuge tubes (Eppendorf, 2.0 mL safe-lock caps). The solid compounds were added stepwise to the buffer solution. More substance is added once all the suspended material is dissolved until an equilibrium between undissolved and dissolved substance is reached. The suspension was mixed using a shaker (Heidolph Reax 2000) and treated 5 min in an ultrasound bath (Bandelin, Sonorex Super RK255H). The Gadolinium concentration of the test substance in the clear solution is measured by ICP-MS. Table 1: Solubilities of compounds in aqueous buffer at 20°C (pH 7.4).

**Q.** For “Gadolinium-2,2',2"-[10-(carboxymethyl)-2-(4-ethoxybenzyl)-1,4,7,10-tetraazacyclododecane-1,4,7-triyl]triacetate [Example 8]”, which “Uptake into OATP1B1-HEK 293 cells” value (OATP1B1 [1]) is on record?
**A.** 208 % of RC1

**Q.** And the “Inhibition Rifampicine” value (OATP1B1 [2])?
**A.** 75 % inhibition

**Q.** What about the Uptake rat hepatocytes [3] of the same substance?
**A.** 143 % of RC1

**Q.** What about the “Inhibition Rifampicine” value [3] of the same substance?
**A.** 96 % inhibition

**Q.** What does the source list for “Gadolinium-2,2',2"-[10-(carboxymethyl)-2-(4-ethoxybenzyl)-1,4,7,10-tetraazacyclododecane-1,4,7-triyl]triacetate [Example 9]”?
**A.** Solubility [4]: > 145 mM; Uptake into OATP1B1-HEK 293 cells (OATP1B1 [1]): 60 % of RC1; Inhibition Rifampicine (OATP1B1 [2]): 23 % inhibition; Uptake rat hepatocytes [3]: 42 % of RC1; Inhibition Rifampicine [3]: 93 % inhibition

**Q.** For “Gadolinium-2,2',2"-[(2S)-2-(4-butoxybenzyl)-10-(carboxymethyl)-1,4,7,10-tetraaza cyclododecane-1,4,7-triyl]triacetate [Example 12]”, which Solubility [4] is on record?
**A.** 211 mM

**Q.** And the “Uptake into OATP1B1-HEK 293 cells” value (OATP1B1 [1])?
**A.** 119 % of RC1

**Q.** And the “Inhibition Rifampicine” value (OATP1B1 [2])?
**A.** 81 % inhibition

**Q.** What about the Uptake rat hepatocytes [3] of the same substance?
**A.** 110 % of RC1

**Q.** And the “Inhibition Rifampicine” value [3]?
**A.** 96 % inhibition

**Q.** Which Solubility [4] does the source give for “Gadolinium-2,2',2"-[(2S)-2-(4-butoxybenzyl)-10-(carboxymethyl)-1,4,7,10-tetraaza cyclododecane-1,4,7-triyl]triacetate [Example 13]” here?
**A.** > 43 mM

**Q.** What about the “Uptake into OATP1B1-HEK 293 cells” value (OATP1B1 [1]) of the same substance?
**A.** 847 % of RC1

**Q.** What about the “Inhibition Rifampicine” value (OATP1B1 [2]) of the same substance?
**A.** 88 % inhibition

**Q.** And the Uptake rat hepatocytes [3]?
**A.** 137 % of RC1

**Q.** And the “Inhibition Rifampicine” value [3]?
**A.** 86 % inhibition

**Q.** For “Gadolinium-2,2',2"-[(2S)-10-(carboxymethyl)-2-(4-ethoxybenzyl)-1,4,7,10-tetraazacyclododecane-1,4,7-triyl]triacetate [Example 10]”, which Solubility [4] is on record?
**A.** > 23 mM

**Q.** And the “Uptake into OATP1B1-HEK 293 cells” value (OATP1B1 [1])?
**A.** 212 % of RC1

**Q.** And the “Inhibition Rifampicine” value (OATP1B1 [2])?
**A.** 73 % inhibition

**Q.** What about the Uptake rat hepatocytes [3] of the same substance?
**A.** 104 % of RC1

**Q.** And the “Inhibition Rifampicine” value [3]?
**A.** 96 % inhibition

**Q.** What does the source list for “Gadolinium-2,2',2"-[(2S)-10-(carboxymethyl)-2-(4-ethoxybenzyl)-1,4,7,10-tetraazacyclododecane-1,4,7-triyl]triacetate [Example 11]”?
**A.** Solubility [4]: > 146 mM; Uptake into OATP1B1-HEK 293 cells (OATP1B1 [1]): 96 % of RC1; Inhibition Rifampicine (OATP1B1 [2]): 64 % inhibition; Uptake rat hepatocytes [3]: 49 % of RC1; Inhibition Rifampicine [3]: 96 % inhibition
